In one test the target is T1, Trpv2 (Rattus norvegicus, UniProt Q9WUD2).
T1 sequence (Q9WUD2 1-761): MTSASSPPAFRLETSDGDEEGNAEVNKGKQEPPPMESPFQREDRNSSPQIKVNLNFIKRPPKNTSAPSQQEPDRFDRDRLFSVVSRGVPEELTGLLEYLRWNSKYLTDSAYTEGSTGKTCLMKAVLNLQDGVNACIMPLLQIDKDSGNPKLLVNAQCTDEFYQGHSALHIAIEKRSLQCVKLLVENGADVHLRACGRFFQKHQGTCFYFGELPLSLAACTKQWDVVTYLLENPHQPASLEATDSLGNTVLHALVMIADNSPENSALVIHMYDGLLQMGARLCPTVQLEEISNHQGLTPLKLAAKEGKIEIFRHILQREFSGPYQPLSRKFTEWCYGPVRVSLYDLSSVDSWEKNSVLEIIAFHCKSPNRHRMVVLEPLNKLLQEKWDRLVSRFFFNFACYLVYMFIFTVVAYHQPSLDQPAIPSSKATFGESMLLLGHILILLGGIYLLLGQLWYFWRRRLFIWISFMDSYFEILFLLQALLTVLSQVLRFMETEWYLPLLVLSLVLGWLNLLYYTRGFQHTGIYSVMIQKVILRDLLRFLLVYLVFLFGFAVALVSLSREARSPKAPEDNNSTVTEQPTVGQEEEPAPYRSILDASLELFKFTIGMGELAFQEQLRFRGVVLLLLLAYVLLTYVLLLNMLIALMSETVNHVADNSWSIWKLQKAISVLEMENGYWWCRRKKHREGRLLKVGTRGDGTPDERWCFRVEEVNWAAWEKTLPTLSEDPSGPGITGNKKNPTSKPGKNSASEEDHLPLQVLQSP
Nature of the test: Intracellular calcium influx (Fluo-4 NW) in DA FLS. Format: cell-based. Further details: endogenous in cells; host or cells: fibroblast-like synoviocytes (FLS) from DA rats. To be noted: measured over 200 seconds; compared with O1821. How it is done:
Intracellular calcium influx was measured using the Fluo-4 NW calcium assay kit (Molecular Probes/Invitrogen) according to the manufacturer's instructions, as previously described (Laragione et al., “CXCL10 and its Receptor CXCR3 Regulate Synovial Fibroblast Invasion in Rheumatoid Arthritis,” Arthritis Rheum. 63 (11):3274-3283 (2011), which is hereby incorporated by reference in its entirety). Briefly, DA FLS were plated at a density of 4,500 cells/well in a 96-well plate (100 μl volume of complete media per well). After cell adhesion the media was changed to serum-free media for overnight culture. Serum-free media was then replaced with 50 μl of dye loading solution, followed by incubation at 37° C. for 30 minutes and a baseline fluorimetric reading. Then, O1821, LER13, or vehicle were added to their respective wells at different concentrations and fluorescence read immediately in a Fluoroskan Ascent Microplate Fluorometer (Thermo Scientific) with settings appropriate for excitation at 494 nm and emission at 516 nm.

The next test concerns FLS. The test is described as follows: FLS invasion, focused library screen (Table 1). Format: cell-based. To be noted: evaluated over 24 hours in vitro. How it is done: The in vitro invasiveness of FLS was assayed in a transwell system using Matrigel-coated inserts (BD Biosciences, Franklin Lakes, N.J.), as previously described (Tolboom et al., “Invasiveness of Fibroblast-Like Synoviocytes is an Individual Patient Characteristic Associated with the Rate of Joint Destruction in Patients with Rheumatoid Arthritis,” Arthritis Rheum. 52 (7):1999-2002 (2005); Laragione et al., “The Arthritis Severity Locus Cia5d is a Novel Genetic Regulator of the Invasive Properties of Synovial Fibroblasts,” Arthritis Rheum. 58 (8):2296-2306 (2008), which are hereby incorporated by reference in their entirety). Briefly, 70-80% confluent cells were harvested by trypsin-EDTA digestion, and re-suspended at 2.0×10^4 cells in 500 μl of serum-free DMEM. Cells were placed in the upper compartment of the Matrigel-coated inserts. Where indicated, O1821, LER13, or vehicle was added to the upper chamber. The lower compartment was filled with complete media and the plates were incubated at 37° C. for 24 hours. After 24 hours the upper surface of the insert was wiped with cotton-swabs to remove non-invading cells and the Matrigel layer. The opposite side of the insert was stained with Crystal Violet (Sigma) and the total number of cells that invaded through Matrigel counted at 100× magnification. Experiments were done in duplicate.

The subject of test [1] is C57BL/6 mice with KRN serum transfer-induced arthritis. Nature of the test: KRN serum transfer induced arthritis (clinical scores and histology). The class given is in vivo, mouse. Particulars: KRN serum induced arthritis. How it is done:
Seven to eight week-old C57BL/6 male mice (Jackson Laboratories) received 200 μl of KRN arthritogenic serum (Ji et al, “Genetic Influences on the End-Stage Effector Phase of Arthritis,” J. Exp. Med. 194 (3):321-330 (2001), which is hereby incorporated by reference in its entirety) (KBN TCR transgenic mice were a kind gift from Christophe Benoist and have been intercrossed with NOD at the Feinstein Institute to generate KRN mice and the arthritogenic serum) intraperitoneal (IP) on day zero (D0) and day 2 (D2). After the onset of clear ankle arthritis (day 3; D3), mice were started on O1821 10 mg/Kg IP BID or control vehicle (DMSO in saline solution). Arthritis severity was scored according to the system reported by Jirholt et al., “Genetic Linkage Analysis of Collagen-Induced Arthritis in the Mouse,” Eur. J. Immunol. 28 (10):3321-3328 (1998), which is hereby incorporated by reference in its entirety, which includes a number of involved joints and a degree of inflammation (swelling/redness) in a scale of 0-12 per mouse per day.
[…] Histology slides were scored without knowledge of treatment and according to a comprehensive scoring system previously reported that includes parameters for synovial hyperplasia, inflammatory cell infiltration, and bone and cartilage erosions (Brenner et al., “The Non-MHC Quantitative Trait Locus Cia10 Contains a Major Arthritis Gene and Regulates Disease Severity, Pannus Formation and Joint Damage,” Arthritis Rheum. 52 (1):322-332 (2005), which is hereby incorporated by reference in its entirety).

The subject of test [2] is DBA1/J mice with collagen-induced arthritis. The test is described as follows: Collagen induced arthritis (CIA). The class given is in vivo, mouse. To be noted: for Arthritis severity (CIA): collagen-induced arthritis. The text has this: CIA was induced in 8-week-old male DBA1/J mice (Jackson Laboratories) using a standard protocol (Courtenay et al., “Immunisation Against Heterologous Type II Collagen Induces Arthritis in Mice,” Nature 283 (5748):666-668 (1980); Nagler-Anderson et al., “Suppression of Type II Collagen-Induced Arthritis by Intragastric Administration of Soluble Type II Collagen,” Proc. Natl. Acad. Sci. U.S.A. 83 (19):7443-7446 (1986), which are hereby incorporated by reference in their entirety). Briefly, bovine type II collagen (Chondrex, Redmond, Wash.) was dissolved overnight in acetic acid 0.1 N and then homogenized at 1:1 with Complete Freund's Adjuvant (CFA, Difco, Detroit, Mich.). Anesthetized mice were injected intradermally with 100 μg of type II collagen emulsified in CFA in the tail. The new Trpv2 agonist LER13 (10 mg/Kg) or control vehicle (PBS 50%, PEG300 40%, PG 5%, PS80 5%) was started on day 10 (D10) and administered intra-peritoneally every-other-day (from D10 until day 55). On day 21 (D21), mice received a booster injection of 100 μg of type II collagen in incomplete Freund's adjuvant. Clinical signs of arthritis were evident on day 24 (D24).
Arthritis severity in CIA mice was scored using a modified scoring system based on Jirholt et al., “Genetic Linkage Analysis of Collagen-Induced Arthritis in the Mouse,” Eur. J. Immunol. 28 (10):3321-3328 (1998), which is hereby incorporated by reference in its entirety. Briefly, the modified scoring system ranged from 0-16 per mouse per day and included a functional component of disease severity (non-weight bearing) in the maximum score of 4 per paw. The arthritis severity index (ASI), which is the sum of all scores obtained during the observation period, was used to compare treatment groups as it provides a comprehensive assessment of arthritis severity over time, and correlates with histologic damage (Brenner et al., “The Non-MHC Quantitative Trait Locus Cia10 Contains a Major Arthritis Gene and Regulates Disease Severity, Pannus Formation and Joint Damage,” Arthritis Rheum. 52 (1):322-332 (2005); Brenner et al., “The Non-MHC Quantitative Trait Locus Cia5 Contains Three Major Arthritis Genes that Differentially Regulate Disease Severity, Pannus Formation, and Joint Damage in Collagen- and Pristane-Induced Arthritis,” J. Immunol. 174 (12):7894-7903 (2005), which are hereby incorporated by reference in their entirety).

With `C=C(C)[C@@H]1CCC(C)=C[C@H]1c1c(O)cc(C)cc1O` [Compound 1], the Calcium influx entry on Trpv2 is listed as “increased”. Moreover, in the test with FLS, the “FLS invasion decreased by” value is recorded as “Decreased by 30%”. Moreover, in test [1], the “Arthritis severity (KRN)” value is on record as “Protective KRN”.

In the case of `C=C(C)[C@@H]1CCC(C)=C[C@H]1c1c(C)cc(O)cc1O` [Compound 2], the Calcium influx entry at Trpv2 is given as “increased (like DMSO, but less than O1821)”.

Consider `C=C(C)[C@H]1CCC(C)=CC1c1c(O)c(C2C=C(C)CC[C@H]2C(=C)C)c(O)c([C@@H]2C=C(C)CC[C@H]2C(=C)C)c1O` (some centres unmarked) [Compound 3], for which the Calcium influx result at Trpv2 is listed as “increased (20% greater than O1821)”.

Consider `C=C(C)[C@H]1CCC(C)=CC1c1c(O)cc(O)c([C@@H]2C=C(C)CC[C@H]2C(=C)C)c1O` (some centres unmarked) [Compound 4], for which the Calcium influx entry on Trpv2 is recorded as “increased (25% less than O1821)”.

Take `C=C(C)[C@@H]1CCC(C)=C[C@H]1c1c(O)cc(O)cc1O` [Compound 5]: at Trpv2, the Calcium influx entry is “increased (25% less than O1821)”.

For the compound `C=C(C)[C@H]1CCC(C)=CC1c1c(/C=C/c2ccc(O)cc2)cc(O)c([C@@H]2C=C(C)CC[C@H]2C(=C)C)c1O` (some centres unmarked) [Compound 6], at Trpv2, the Calcium influx entry is reported as “increased (similar to O1821)”.

`C=C(C)[C@@H]1CCC(C)=C[C@H]1c1c(O)cc(/C=C/c2ccc(O)cc2)cc1O` [Compound 7]: the Calcium influx entry on Trpv2 is reported as “increased (50% less than O1821)”.

As for `C=C(C)[C@H]1CCC(C)=CC1c1c(O)cc(O)cc1/C=C/c1ccc(O)cc1` (some centres unmarked) [Compound 8], the Calcium influx entry at Trpv2 was “increased (10% less than O1821)”.

For the compound `C=C(C)[C@@H]1CCC(C)=CC1c1c(O)cc(F)cc1O` (some centres unmarked) [Compound 9], at Trpv2, the Calcium influx result is on record as “increased (similar to O1821)”.

On to `C=C(C)[C@@H]1CCC(C)=CC1c1c(O)cc(O)cc1F` (some centres unmarked) [Compound 10], for which, at Trpv2, the Calcium influx entry is “increased (20% greater than O1821)”. For the same compound, the “FLS invasion decreased by” value in the test on FLS was “Decreased by 100%”. In addition, in test [2], the “Arthritis severity (CIA)” value is “Not protective KRN and CIA”. The “Arthritis severity (KRN)” value in test [1] is “Not protective KRN and CIA”.

As for `C=C(C)[C@@H]1CCC(C)=CC1c1c(O)cc(O)cc1Cl` (some centres unmarked) [Compound 11], the Calcium influx result on Trpv2 is “increased (20% greater than O1821)”.

With `C=C(C)[C@@H]1CCC(C)=CC1c1c(O)cc(Cl)cc1O` (some centres unmarked) [Compound 12], the Calcium influx entry at Trpv2 is given as “increased (20% greater than O1821)”. Moreover, the “FLS invasion decreased by” value with FLS is recorded as “Decreased by 100%”. For the same compound, the “Arthritis severity (CIA)” value in test [2] is recorded as “Not protective in CIA”.

As to `C#Cc1cc(O)cc(O)c1C1C=C(C)CC[C@H]1C(=C)C` (some centres unmarked) [Compound 14], the Calcium influx result at Trpv2 is listed as “increased (20% greater than O1821)”. Also, the “FLS invasion decreased by” value with FLS is recorded as “Decreased by 100%”. In addition, the “Arthritis severity (KRN)” value in test [1] is reported as “Not protective in KRN”.

In the case of “(1R,2″R,2R,2″S)-6′-ethynyl-5,5″-dimethyl-2,2″-di(prop-1-en-2-yl)-1,1″,2,2″,3,3″,4,4″-octahydro-[1,1′:3′,1″-terphenyl]-2′,4′-diol [Compound 13]”, the “Arthritis severity index (ASI), mean±S.D.” value in test [2] (10 mg/Kg IP every-other-day from D10, scoring to D76) amounted to 40.7±36.8.
